What is called IC50 is the midpoint of a concentration-inhibition curve.

Like-named read-outs stand apart in the source and are kept apart here.

For 14 compounds, IC50 results are on record in patent US20060004029A1, “Nitrogen-containing aromatic derivatives” (priority 2003, published 2006).

For one assay, the target named is T1, VEGFR2 (Homo sapiens, UniProt P35968).
T1 construct: coding for the cytoplasmic domain, beginning with lysine 791 and including the termination codon; made in house; host or cells: Sf9 insect cells, baculovirus (pFastBacHis)
T1 sequence (P35968 786-1356 limits assumed): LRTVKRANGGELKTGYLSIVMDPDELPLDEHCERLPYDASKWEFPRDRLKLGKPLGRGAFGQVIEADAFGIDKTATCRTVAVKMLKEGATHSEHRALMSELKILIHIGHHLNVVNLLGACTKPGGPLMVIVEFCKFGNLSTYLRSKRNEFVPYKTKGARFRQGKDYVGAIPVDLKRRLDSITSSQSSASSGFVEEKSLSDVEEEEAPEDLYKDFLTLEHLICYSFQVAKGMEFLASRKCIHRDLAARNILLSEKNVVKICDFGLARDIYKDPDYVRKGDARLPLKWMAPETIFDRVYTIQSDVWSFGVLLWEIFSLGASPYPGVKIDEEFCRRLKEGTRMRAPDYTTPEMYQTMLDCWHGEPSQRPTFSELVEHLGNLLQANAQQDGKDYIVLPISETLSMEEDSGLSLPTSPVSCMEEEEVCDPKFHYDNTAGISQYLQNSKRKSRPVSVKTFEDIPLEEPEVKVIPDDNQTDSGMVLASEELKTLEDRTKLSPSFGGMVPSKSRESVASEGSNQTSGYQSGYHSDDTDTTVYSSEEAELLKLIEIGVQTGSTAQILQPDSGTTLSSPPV
Briefly: Inhibition against receptor tyrosine kinase activity (HTRF), VEGFR2. Type of assay: biochemical. Here is the method: This assay is used to determine inhibition of a test substance on tyrosine kinase activity. […] Expression in an appropriate expression system can produce a polypeptide with tyrosine kinase activity. […] The recombinant construct was transfected into insect cells (Spondoptea frugiperda9 (Sf9)) to prepare a recombinant Baculovirus.
For expression of the VEGFR2 tyrosine kinase, Sf9 cells were infected with the VEGFR2 recombinant virus and collected after 48 hours. The collected cells were rinsed with ice-cooled phosphate buffered saline (PBS) and then resuspended using 20 ml of ice-cooled Lysis Buffer (50 mM Tris-HCl (pH 8.5), 5 mM 2-mercaptoethanol, 100 mM KCl, 1 mM phenylmethylsulfonyl fluoride, 1% (v/v) NP-40) per 1.5×10^8 cells. The suspension was centrifuged at 12,000 rpm for 30 minutes at 4° C. and the supernatant was obtained. The supernatant was added to a Ni-NTA agarose column (3 ml, purchased from Qiagen) equilibrated with Buffer A {20 mM Tris-HCl (pH 8.5), 5 mM 2-mercaptoethanol, 500 mM KCl, 20 mM imidazole, 10% (v/v) glycerol}. The column was washed with 30 ml of Buffer A, and then with 6 ml of Buffer B {20 mM Tris-HCl (pH 8.5), 5 mM 2-mercaptoethanol, 1M KCl, 10% (v/v) glycerol}, and finally with 6 ml of Buffer A. After washing, it was eluted with 6 ml of Buffer C {20 mM Tris-HCl (pH 8.5), 5 mM 2-mercaptoethanol, 100 mM KCl, 100 mM imidazole, 10% (v/v) glycerol}. The eluate was placed on a dialysis membrane (purchased from Spectrum Laboratories) and dialyzed with a dialysis buffer {20 mM Tris-HCl (pH 7.5), 10% (v/v) glycerol, 1 mM dithiothreitol, 0.1 mM Na3VO4, 0.1 mM EGTA}. […] Using the same method for the cytoplasmic domains of FGFR1, PDGFRβ and HGFR yielded respective recombinant proteins fused with 6 histidine residues at the N-terminal (His6-FGFR1, His6-PDGFRβ or His6-HGFR).
The tyrosine kinase reaction was conducted as follows. […] Next, 10 μl of 4 μM ATP (diluted with distilled water) was added prior to incubation at 30° C. for 10 minutes, and then 10 μl of 500 mM EDTA (pH 8.0) was added.
The tyrosine phosphorylation rate for the biotin-poly(GT) was expressed as the delta F % value as described in the HTRF Standard Experiment Methods text by CIS Diagnostics Co. The delta F % value in the presence of the test substance was determined as a ratio (%) with the delta F % value with addition of His6-VEGFR2 in the absence of the test substance defined as 100% and the delta F % value in the absence of both the test substance and His6-VEGFR2 defined as 0%.
Background: In TR-FRET formats the signal depends on donor and acceptor labels being close together.

For another assay, the target named is T2, FGFR1 (Homo sapiens, UniProt P11362).
T2 construct: made in house; host or cells: Sf9 insect cells, baculovirus (pFastBacHis), by the same method as VEGFR2
T2 sequence (P11362 398-822 limits assumed): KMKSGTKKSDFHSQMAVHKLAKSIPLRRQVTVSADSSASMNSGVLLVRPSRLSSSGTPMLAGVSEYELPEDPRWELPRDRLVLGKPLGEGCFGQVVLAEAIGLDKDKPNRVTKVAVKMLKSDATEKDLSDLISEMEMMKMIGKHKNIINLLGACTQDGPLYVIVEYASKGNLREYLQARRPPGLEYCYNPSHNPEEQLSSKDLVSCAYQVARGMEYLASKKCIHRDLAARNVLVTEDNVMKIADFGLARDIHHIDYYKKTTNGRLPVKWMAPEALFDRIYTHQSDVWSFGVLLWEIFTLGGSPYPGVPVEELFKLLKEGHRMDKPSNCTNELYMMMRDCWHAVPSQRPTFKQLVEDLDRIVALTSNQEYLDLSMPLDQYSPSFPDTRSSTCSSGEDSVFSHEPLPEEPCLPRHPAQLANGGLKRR
Put plainly: Inhibition against receptor tyrosine kinase activity (HTRF), FGFR1. The format is biochemical. An excerpt:
This assay is used to determine inhibition of a test substance on tyrosine kinase activity. DNA coding for the cytoplasmic domain of VEGFR2 is obtained by total cDNA synthesis (Edwards M, International Biotechnology Lab 5(3), 19-25, 1987) or by cloning. Expression in an appropriate expression system can produce a polypeptide with tyrosine kinase activity. […] For VEGFR2 (GenBank Accession No. L04947), the 1.7 kb DNA fragment described by Terman et al. (Oncogene, 6(9), 1677-1683, 1991), coding for the cytoplasmic domain, beginning with lysine 791 and including the termination codon, was isolated from a human placental cDNA library (purchased from Clontech Laboratories, Inc.) and cloned in a Baculovirus expression vector (pFastBacHis, purchased from GIBCO BRL). The recombinant construct was transfected into insect cells (Spondoptea frugiperda9 (Sf9)) to prepare a recombinant Baculovirus. (Instructions for preparation and use of recombinant Baculovirus may be found in standard texts, such as “Bac-To-Bac Baculovirus Expression System” (GIBCO BRL).) The cytoplasmic fragment starting from lysine 398 (FGFR1, GenBank Accession No. X52833), the cytoplasmic fragment starting from lysine 558 (PDGFRβ, GenBank Accession No. M21616) or the cytoplasmic fragment starting from lysine 974 (HGFR, GenBank Accession No. J02958) may be cloned and expressed by the same method for use in assays for other tyrosine kinases. EGFR was purchased from Sigma Co. (Product No. E-2645).
For expression of the VEGFR2 tyrosine kinase, Sf9 cells were infected with the VEGFR2 recombinant virus and collected after 48 hours. The collected cells were rinsed with ice-cooled phosphate buffered saline (PBS) and then resuspended using 20 ml of ice-cooled Lysis Buffer (50 mM Tris-HCl (pH 8.5), 5 mM 2-mercaptoethanol, 100 mM KCl, 1 mM phenylmethylsulfonyl fluoride, 1% (v/v) NP-40) per 1.5×10^8 cells. The suspension was centrifuged at 12,000 rpm for 30 minutes at 4° C. and the supernatant was obtained. The supernatant was added to a Ni-NTA agarose column (3 ml, purchased from Qiagen) equilibrated with Buffer A {20 mM Tris-HCl (pH 8.5), 5 mM 2-mercaptoethanol, 500 mM KCl, 20 mM imidazole, 10% (v/v) glycerol}. The column was washed with 30 ml of Buffer A, and then with 6 ml of Buffer B {20 mM Tris-HCl (pH 8.5), 5 mM 2-mercaptoethanol, 1M KCl, 10% (v/v) glycerol}, and finally with 6 ml of Buffer A. After washing, it was eluted with 6 ml of Buffer C {20 mM Tris-HCl (pH 8.5), 5 mM 2-mercaptoethanol, 100 mM KCl, 100 mM imidazole, 10% (v/v) glycerol}. The eluate was placed on a dialysis membrane (purchased from Spectrum Laboratories) and dialyzed with a dialysis buffer {20 mM Tris-HCl (pH 7.5), 10% (v/v) glycerol, 1 mM dithiothreitol, 0.1 mM Na3VO4, 0.1 mM EGTA}. After dialysis, it was supplied for SDS-electrophoresis, and the recombinant protein (His6-VEGFR2, cytoplasmic domain of VEGFR2 fused with 6 histidine residues at the N-terminus) detected at a molecular weight of approximately 100 kDa with Coumassie Brilliant Blue staining was assayed using BSA (bovine serum albumin, purchased from Sigma Co.) as the standard substance, and stored at −80° C. until use. Using the same method for the cytoplasmic domains of FGFR1, PDGFRβ and HGFR yielded respective recombinant proteins fused with 6 histidine residues at the N-terminal (His6-FGFR1, His6-PDGFRβ or His6-HGFR).
The tyrosine kinase reaction was conducted as follows. In the case of VEGFR2, for example, 10 μl of a kinase reaction solution {200 mM Hepes (pH 7.4), 80 mM MgCl2, 16 mM MnCl2, 2 mM Na3VO4}, 250 ng of biotin-bound poly(Glu4:Tyr1) (biotin-poly(GT), purchased from CIS Diagnostics Co.) (6 μl of a 15-fold dilution with distilled water), 15 ng of His6-VEGFR2 (10 μl of a 240-fold dilution with 0.4% BSA solution) and the test substance dissolved in dimethyl sulfoxide (4 μl of a 100-fold dilution with 0.1% BSA solution) were added into each well of a 96-well round-bottom plate (NUNC Co., Product No. 163320), to a total of 30 μl. […]

Setting [1] is: His6-VEGFR2 cytoplasmic domain, biotin-poly(GT), HTRF, read-out: VEGFR2 kinase IC50.
The mark [2] stands for this setting: His6-FGFR1 cytoplasmic domain, biotin-poly(GT), HTRF, read-out: FGFR1 kinase IC50.

For `CNC(=O)n1ccc2cc(Oc3ccnc(NC(=O)NCC(=O)N4CCCC4)c3)ccc21` [Example 7, 5-(2-(3-(2-Oxo-2-(pyrrolidin-1-yl)ethyl)ureido)pyridin-4-yloxy)-1H-indole-1-carboxylic acid methylamide], the IC50 came to 8 nM on VEGFR2 (setting [1]) and 26 nM on FGFR1 (setting [2]).

Turning to `CNC(=O)n1ccc2cc(Oc3ccnc(NC(=O)NCC(N)=O)c3)ccc21` [Example 11, 5-(2-(3-Carbamoylmethylureido)pyridin-4-yloxy)-1H-indole-1-carboxylic acid methylamide], the IC50 at VEGFR2 (setting [1]) worked out at 3 nM; at FGFR1 (setting [2]), 47 nM.

As for `CNC(=O)n1ccc2cc(Oc3ccnc(NC(=O)N[C@@H](CO)C(=O)N4CCCC4)c3)ccc21` [Example 18, 5-(2-(3-((1S)-1-Hydroxymethyl-2-oxo-2-pyrrolidin-1-ylethyl)ureido)pyridin-4-yloxy)-1H-indole-1-carboxylic acid methylamide], the IC50 on VEGFR2 (setting [1]) stood at 3 nM; at FGFR1 (setting [2]) it was 70 nM.

Turning to `CNC(=O)n1ccc2cc(Oc3ccnc(NC(=O)NCCCC(=O)N4CCCC4)c3)ccc21` [Example 32, 5-(2-(3-(4-Oxo-4-(pyrrolidin-1-yl)butyl)ureido)pyridin-4-yloxy)-1H-indole-1-carboxylic acid methylamide], the values for the IC50 at VEGFR2 (setting [1]) and on FGFR1 (setting [2]) were 9.3 nM and 16 nM, respectively.

`CNC(=O)n1ccc2cc(Oc3ccnc(NC(=O)NCCCC(=O)NC4CC4)c3)ccc21` [Example 33, 5-(2-(3-(3-(Cyclopropylcarbamoyl)propyl)ureido)pyridin-4-yloxy)-1H-indole-1-carboxylic acid methylamide]: the IC50 was 7.1 nM at VEGFR2 (setting [1]) and 12 nM on FGFR1 (setting [2]).

In the case of `CNC(=O)n1ccc2cc(Oc3ccnc(NC(=O)NCCCC(=O)N4CCC(C)(O)CC4)c3)ccc21` [Example 34, 5-(2-(3-(4-(4-Hydroxy-4-methylpiperidin-1-yl)-4-oxobutyl)ureido)pyridin-4-yloxy)-1H-indole-1-carboxylic acid methylamide], the IC50 at VEGFR2 (setting [1]) was found to be 8.4 nM; at FGFR1 (setting [2]), 22 nM.

Consider `CNC(=O)CCCNC(=O)Nc1cc(Oc2ccc3c(ccn3C(=O)NC)c2)ccn1` [Example 36, 5-(2-(3-(3-(Methylcarbamoyl)propyl)ureido)pyridin-4-yloxy)-1H-indole-1-carboxylic acid methylamide], for which the figures for the IC50 on VEGFR2 (setting [1]) and on FGFR1 (setting [2]) were 3.4 nM and 16 nM, respectively.

Consider `CNC(=O)n1ccc2cc(Oc3ccnc(NC(=O)N4CCCC4)c3)ccc21` [Example 37, N1-Methyl-5-(2-(pyrrolidin-1-ylcarbonyl)amino-4-pyridyl)oxy-1H-1-indolecarboxamide], for which the IC50 is 4.8 nM on VEGFR2 (setting [1]) and 1.2 nM at FGFR1 (setting [2]).

For the compound `CNC(=O)n1ccc2cc(Oc3ccnc(NC(=O)N4CCC(=O)CC4)c3)ccc21` [Example 40, N1-methyl-5-(2-(4-oxopiperidin-1-ylcarbonyl)amino-4-pyridyl)oxy-1H-1-indolecarboxamide], the IC50 amounted to 5.7 nM on VEGFR2 and 6.9 nM against FGFR1.

For the compound `CNC(=O)CCCC1CCN(C(=O)Nc2cc(Oc3ccc4c(ccn4C(=O)NC)c3)ccn2)CC1` [Example 43, 5-(2-(((4-(3-Methylcarbamoylpropyl)piperidin-1-yl)carbonyl)amino)pyridin-4-yloxy)-1H-indole-1-carboxylic acid methylamide], the figures for the IC50 on VEGFR2 (setting [1]) and on FGFR1 (setting [2]) were 6.4 nM and 18 nM, respectively.

For the compound `CNC(=O)n1ccc2cc(Oc3ccnc(NC(=O)N4CCC(CCCC(N)=O)CC4)c3)ccc21` [Example 44, 5-(2-(((4-(3-Carbamoylpropyl)piperidin-1-yl)carbonyl)amino)pyridin-4-yloxy)-1H-indole-1-carboxylic acid methylamide], the IC50 at VEGFR2 (setting [1]) came out at 7.7 nM; on FGFR1 (setting [2]), 14 nM.

On to `CNC(=O)n1ccc2cc(Oc3ccnc(NC(=O)NCCCS(C)(=O)=O)c3)ccc21` [Example 50, N1-Methyl-5-(2-((3-methylsulfonylpropylamino)carbonyl)amino-4-pyridyl)-oxy-1H-1-indolecarboxamide], for which the IC50 on VEGFR2 (setting [1]) was determined as 5 nM; at FGFR1 (setting [2]), 13 nM.

Take `O=C(Nc1cc(Oc2ccc3c(ccn3C(=O)NC3CC3)c2)ccn1)N1CCC(N2CCCC2)CC1` [Example 68, N1-Cyclopropyl-5-(2-(((4-(pyrrolidin-1-yl)piperidin-1-yl)carbonyl)amino)pyridin-4-yloxy)-1H-1-indolecarboxamide]: the values for the IC50 at VEGFR2 (setting [1]) and on FGFR1 (setting [2]) were 37 nM and 52 nM, respectively.

For `CCNC(=O)n1ccc2cc(Oc3ccnc(NC(=O)N4CCC(O)CC4)c3)ccc21` [Example 79, N1-Ethyl-5-(2-((4-hydroxypiperidin-1-yl)carbonyl)amino-4-pyridyl)oxy-1H-1-indolecarboxamide], the half-inhibitory concentration (IC50) on VEGFR2 (setting [1]) is 9.8 nM; on FGFR1 (setting [2]), 25 nM.
